Assay results as given in paper PMC3917258, “6-Bromoisatin Found in Muricid Mollusc Extracts Inhibits Colon Cancer Cell Proliferation and Induces Apoptosis, Preventing Early Stage Tumor Formation in a Colorectal Cancer Rodent Model” (Marine Drugs, 2013).
Where “and” joins values, the source holds several entries; their conditions need not be identical. Identical values can stand only once.

How the values were obtained:
[1] = system: epithelial cells of distal colon; assay: AARGC mouse model: apoptotic index; assay type: in vivo, mice (C57BL/6J)
Method: (§1) This experiment was conducted under Flinders animal welfare approval number 751-10. A total of 38 wild-type (C57BL/6J) male mice aged 10 weeks were obtained from the Animal Resource Centre, Perth, Western Australia. Mice were divided randomly into 4 groups (ten mice in each treatment group and 8 mice in the sunflower oil only control group) and housed in 8 cages (four to five mice per cage). The mice were given water and food (rodent chow) ad libitum and maintained at the temperature of 22 ± 2 °C and humidity of 80% ± 10% with a 12 h light/dark cycle. Mice were weighed every five days and on the day of kill, and monitored daily for signs of illness, such as weight and hair loss, diarrhea, constipation, rectal bleeding, labored breathing, lethargy, eye and nose discharge.
(§2) To detect the early stage prevention of colon cancer, an established AARGC rodent model with injection of the carcinogen AOM was used. Synthetic 6-bromoisatin at 3 different dosages (0.025, 0.05 and 0.1 mg/g body weight) was administered to mice by daily oral gavage in 100 µL sunflower oil, containing 0.02% Vitamin E, for two weeks. The control group was gavaged with sunflower oil (containing 0.02% Vitamin E) only. After two weeks, all mice were injected with a single intraperitoneal (i.p.) injection of AOM at a dosage of 10 mg/kg bodyweight and euthanized 6 h later by cervical dislocation under anesthesia. […] The distal colon of each mouse was excised and fixed in 10% buffered formalin for 24 h and then embedded in paraffin for histological and immunohistological examination.
Distal colon segments were embedded in paraffin and sectioned at 4 µm (3–4 sections per mouse), then stained with hematoxylin, to evaluate apoptosis in epithelial cells of distal colon sections. The slides were examined under a light microscope (Olympus BH-2, Mt Waverly, VIC, Australia, 400× magnification) to identify the apoptotic cells, by characteristic morphological changes such as cell shrinkage, condensed chromatin and sharply delineated cell borders surrounded by an unstained halo [26, 49]. Twenty randomly chosen crypts were used to calculate the percent of apoptotic cells per crypt. The mean crypt column height was also determined.

[2] = system: caspase 3/7 activity in HT29 cells; assay: Caspase-Glo 3/7 assay; assay type: cell-based, human; settings: 12 h
Method: (§3) All media and chemicals were purchased from Sigma Aldrich (Castle Hill, NSW, Australia) unless otherwise stated. HT29 human colorectal cancer cell line (passage no. 36-42) were cultured (37 °C and 5% CO2) in Dulbecco’s Modified Eagle’s Medium (DMEM) supplemented with 4500 mg/L L-glutamine, 10% FBS, 100 U/mL Penicillin/Streptomycin and 1% Non-essential Amino Acid (100×), until the cells reached 70% confluence. The cells were harvested from flasks by trypsinization (1× Trypsin-EDTA) and were seeded (20,000 cells/well) into clear 96-well plates (Costar®, Mt Martha, VIC, Australia) for measurement of cell viability and white (opaque) 96-well plates (Interpath, Heidelberg West, VIC, Australia) for determination of apoptosis and necrosis. HT29 cells were incubated for 48 h, then the media was removed and the cells were washed with PBS. To treat the cells, synthetic 6-bromoisatin was dissolved in 100% dimethylsulphoxide (DMSO) then diluted in media and added to the cells at a range of concentrations from 0.1 to 0.01 mg/mL, in triplicate (final DMSO concentration of 1%). 1% DMSO controls were also included on each plate. Staurosporine (5 µM) for apoptosis and lysis solution (5 μL/well, Promega, Alexandria, NSW, Australia) for necrosis were added to the white plates in triplicate, as positive controls. All cells were treated for 12 h. Morphological changes in the cells were observed on an Olympus CK2 inverted optical microscope (×400 magnification) 12 h after treatment. To measure cell viability, the MTT assay was applied, which measures the reduction of MTT tetrazolium salt to formazan, as previously described. To measure necrosis and apoptosis, CytoTox-ONE Homogeneous Membrane Integrity Assay reagent (Promega) and Caspase-Glo 3/7® assay (Promega) were applied respectively, according to our previous study. These assays were all repeated in triplicate on three separate occasions (n = 3).

HT29 cells [3] = assay: MTT cell viability assay; assay type: cell-based, human; settings: for reduction of cell viability: relative to DMSO control, 12 h
Method: as §3, with “To treat the cells, synthetic 6-bromoisatin was dissolved in 100% dimethylsulphoxide (DMSO) then diluted in media and added to the cells at a range of concentrations from 0.1 to 0.01 mg/mL, in triplicate (final DMSO concentration of 1%).” left out

[4] = system: distal colonic epithelial cells; assay: AARGC mouse model: Ki-67 proliferation index; assay type: in vivo, mice (C57BL/6J); settings: distal colon, compared to oil control
Method: as §1, §2
Ki-67 is a cell cycle associated antigen and regarded as a useful proliferation marker. Proliferative activity of distal colonic epithelial cells was measured using an antibody specific for the nuclear proliferating antigen ki-67 (rat-anti-mouse clone TEC-3, Dako, Campbellfield, VIC, Australia) in combination with an immunohistochemistry detection method in paraffin embedded sections, as previously described. […]

HT29 cells [5] = assay: LDH release (CytoTox-ONE membrane integrity, necrosis); assay type: cell-based, human; settings: any concentration, in comparison with DMSO control, 12 h
Method: as §3, with “Morphological changes in the cells were observed on an Olympus CK2 inverted optical microscope (×400 magnification) 12 h after treatment. To measure cell viability, the MTT assay was applied, which measures the reduction of MTT tetrazolium salt to formazan, as previously described. To measure necrosis and apoptosis, CytoTox-ONE Homogeneous Membrane Integrity Assay reagent (Promega) and Caspase-Glo 3/7® assay (Promega) were applied respectively, according to our previous study. These assays were all repeated in triplicate on three separate occasions (n = 3).” left out

IC50 (HT29 cells [3]; Homo sapiens, HT-29, HT29 cells, MTT, 12 h treatment, 1% DMSO): 223 µM and 50 µg/mL
SMILES: O=C1Nc2cc(Br)ccc2C1=O [6-bromoisatin, 6-Bromoindole-2,3-dione]
increase in apoptotic index over the oil control ([1]; 0.05 mg/g daily oral gavage two weeks, distal colon, 6 h post AOM 10 mg/kg): 2.3 fold
apoptotic index lower than the dose of 0.05 mg/g ([1]; 0.1 mg/g daily oral gavage two weeks, distal colon): 40%
apoptotic index ([1]; 0.1 mg/g daily oral gavage two weeks, distal colon, compared with control): significantly induced apoptosis
apoptotic index ([1]; lowest concentration (0.025 mg/g) daily oral gavage two weeks, compared to AOM injected control): not a significant difference
caspase 3/7 activity ([2]; 446 μM = 0.1 mg/mL, compared to DMSO control): minor but significant reduction
caspase 3/7 activity ([2]; concentrations <0.1 mg/mL): did not increase caspase 3/7 activity
reduction of cell viability (HT29 cells [3]; 0.01 mg/mL): no significant reduction
reduction of cell viability (HT29 cells [3]; 0.025 mg/mL): 26%
reduction of cell viability (HT29 cells [3]; 0.05 mg/mL): 53%
reduction of cell viability (HT29 cells [3]; 1 mg/mL): 64%
cell proliferation ([4]; 0.025 mg/g daily oral gavage two weeks): did not show a significant anti-proliferative effect
cell proliferation ([4]; 0.05 mg/g daily oral gavage two weeks): significantly reduced
reduction in cell proliferation ([4]; 0.1 mg/g daily oral gavage two weeks): more than 50%
level of lactate dehydrogenase (LDH) (HT29 cells [5]): No increase
